The results in this text go back to ChEMBL document CHEMBL4364263, “Synthesis and biological evaluation of 2,4,5-trisubstituted thiazoles as antituberculosis agents effective against drug-resistant tuberculosis” (Eur J Med Chem, 2019).

The structures appear in SMILES notation. In brackets after ≈: the same amount, converted by molar mass. Bounds are passed on as bounds.

The subject of experiment [1] is Mycobacterium tuberculosis. Kind of experiment: Antitubercular activity against replicating Mycobacterium tuberculosis H37Rv assessed as growth inhibition measured after 7 days incubation by microplate alamar blue assay. The class given is functional. As to conditions: 168 h. Background: The colour change of resazurin is a common sign of viable cells or microbes.

Experiment [2] deals with Mycobacterium tuberculosis. The experiment in a line: Antimycobacterial activity against dormant stage of Mycobacterium tuberculosis H37Ra ATCC 25177 assessed as growth inhibition at 10 uM incubated for 12 days by XRMA method relative to control. The experiment is classed as functional. As to conditions: H37Ra ATCC 25177, 288 h.
Experiment [3] relates to CHO-K1. Kind of experiment: Cytotoxicity against CHOK1 cells assessed as reduction in cell viability incubated for 24 hrs by MTT assay. As to conditions: Cricetulus griseus, CHO-K1, 24 h. The class given is cell-based.

Usually MIC stands for the lowest concentration found to suppress growth. The term inhibition denotes the relative decrease from the control value, in per cent. The term IC50 denotes the concentration at which inhibition is half-maximal.

On to `CC(C)c1nc(C(=O)NCc2ccc(F)cc2)c(-c2ccc(C#N)cc2)s1`, for which the MIC in experiment [1] was above 34 µg/mL.
For `COc1ccc(CCNC(=O)c2nc(C(C)C)sc2-c2ccc(C#N)cc2)cc1OC`, in experiment [1], the MIC was 5.4 µg/mL (≈ 12.4 µM). In addition, the inhibition at 10 µM in experiment [2] was 89.4%.
With `CC(C)c1nc(C(=O)N[C@H](C)c2cccc3ccccc23)c(-c2ccc(C#N)cc2)s1`, the MIC in experiment [1] was above 34 µg/mL.
With `CCOC(=O)c1nc(C(C)C)sc1-c1cccc2cnccc12`, the MIC in experiment [1] stood at 16.3 µg/mL (≈ 49.9 µM).
On the same count and under the same terms, the result for `CC(C)c1nc(C(=O)NCc2ccc(Cl)cc2)c(-c2ccc(C#N)cc2)s1` reads above 34 µg/mL; that for `CC(C)c1nc(C(=O)NCc2cccnc2)c(-c2ccc(C#N)cc2)s1`, above 34 µg/mL.
Regarding `CCOC(=O)c1nc(C2CCCCC2)sc1-c1ccc2c(c1)OCO2`, the MIC in experiment [1] worked out at 8.9 µg/mL (≈ 24.8 µM). For the same compound, in experiment [2], the inhibition at 10 µM is 92%.
In the same order, the values of `CCOC(=O)c1nc(C2CCCCC2)sc1-c1ccc2nccnc2c1` are 4.5 µg/mL (≈ 12.2 µM) and 93.3%.
Consider `CCOC(=O)c1nc(C(C)C)sc1-c1ccc2c(c1)NC(=O)CO2`, for which, in experiment [1], the MIC is above 34 µg/mL.
On to `CC(C)c1nc(C(=O)N[C@@H](C)c2ccccc2)c(-c2ccc3c(c2)OCO3)s1`, for which the MIC in experiment [1] was 4.9 µg/mL (≈ 12.4 µM). Further, the inhibition at 10 µM in experiment [2] turned out to be 90.8%.
For `CCOC(=O)c1nc(C(C)C)sc1-c1cccc(C#N)c1`, the MIC in experiment [1] fell in the range of 15 to 17 µg/mL (≈ 49.9 to 56.6 µM).
On the same count and under the same terms, the result for `C[C@H](NC(=O)c1nc(C2CCCCC2)sc1-c1ccc(C#N)cc1)c1ccccc1` reads 20.7 µg/mL (≈ 49.8 µM); that for `CC(C)c1nc(C(=O)N2CCOCC2)c(-c2ccc3c(c2)OCO3)s1`, above 34 µg/mL.
Take `COc1ccc(CCNC(=O)c2nc(C)sc2-c2ccc(C#N)cc2)cc1OC`: the MIC in experiment [1] was above 34 µg/mL. Also, the inhibition at 10 µM in experiment [2] amounted to 67.3%.
For `COc1ccc(CCNC(=O)c2nc(C3CCCCC3)sc2-c2ccc(C#N)cc2)cc1OC` the same measures were 5.9 µg/mL (≈ 12.4 µM) and 71.6%.
In the same order, the values of `CCOC(=O)c1nc(C2CCCCC2)sc1-c1cnc2ccccc2c1` are 4.5 µg/mL (≈ 12.3 µM) and 86.5%.
Regarding `CC(C)c1nc(C(=O)NCc2cc(Cl)cc(Cl)c2)c(-c2ccc(C#N)cc2)s1`, in experiment [1], the MIC was above 34 µg/mL.
Same read-out and setting: the value for `Cc1nc(C(=O)N2CCOCC2)c(-c2ccc(C#N)cc2)s1` was above 34 µg/mL.
As for `CO[C@@]12[C@H](COC(N)=O)C3=C(C(=O)C(C)=C(N)C3=O)N1C[C@@H]1N[C@@H]12` [MITOMYCIN], the IC50 in experiment [3] came to 13.1 µg/mL (≈ 39.2 µM).
As to `CC(C)c1nc(C(=O)NCc2ccc(Cl)c(F)c2)c(-c2ccc(C#N)cc2)s1`, in experiment [1], the MIC was above 34 µg/mL.
Same read-out and setting: the value for `CCOC(=O)c1nc(C2CCCCC2)sc1-c1ccc2c(c1)NC(=O)CO2` was 19.3 µg/mL (≈ 49.9 µM); that for `Cc1nc(C(=O)NCc2cccnc2)c(-c2ccc(C#N)cc2)s1` was above 34 µg/mL.
Turning to `Cc1nc(C(=O)N[C@H](C)c2ccccc2)c(-c2ccc(C#N)cc2)s1`, the MIC in experiment [1] is above 34 µg/mL. Also, the inhibition at 10 µM in experiment [2] is 74%.
On to `Cc1nc(C(=O)NCc2ccc3c(c2)OCO3)c(-c2ccc(C#N)cc2)s1`, for which the MIC in experiment [1] was above 34 µg/mL.
As to `CC(C)c1nc(C(=O)N[C@H](C)c2ccccc2)c(-c2ccc(C#N)cc2)s1`, the MIC in experiment [1] is 9.3 µg/mL (≈ 24.8 µM). Besides, the inhibition at 10 µM in experiment [2] was determined as 86.7%.
As to `N#Cc1ccc(-c2sc(C3CCCCC3)nc2C(=O)NCc2ccc3c(c2)OCO3)cc1`, the MIC in experiment [1] is above 34 µg/mL.
As to `C[C@@H](NC(=O)c1nc(C2CCCCC2)sc1-c1ccc(C#N)cc1)c1ccccc1`, the MIC in experiment [1] stood at 10.3 µg/mL (≈ 24.8 µM). Besides, the inhibition at 10 µM in experiment [2] came out at 57.8%.
Turning to `CCOC(=O)c1nc(C)sc1-c1ccc2c(c1)OCO2`, in experiment [1], the MIC was 13.6 µg/mL (≈ 46.7 µM).
Same read-out and setting: the value for `CC(C)c1nc(C(=O)N2CCOCC2)c(-c2ccc(C#N)cc2)s1` was above 34 µg/mL; that for `CCOC(=O)c1nc(C(C)C)sc1-c1ccccc1C#N` was 15 µg/mL (≈ 49.9 µM).
On the same count and under the same terms, the value for `CC(C)c1nc(C(=O)NCc2ccccc2)c(-c2ccc(C#N)cc2)s1` was above 34 µg/mL.
As for `CCOC(=O)c1nc(C(C)C)sc1-c1ccc2nccnc2c1`, in experiment [1], the MIC was 8.1 µg/mL (≈ 24.7 µM). For the same compound, the inhibition at 10 µM in experiment [2] was 19.5%.
`CO[C@H]1/C=C/O[C@@]2(C)Oc3c(C)c(O)c4c(O)c(c(/C=N/N5CCN(C)CC5)c(O)c4c3C2=O)NC(=O)/C(C)=C\C=C\[C@H](C)[C@H](O)[C@@H](C)[C@@H](O)[C@@H](C)[C@H](OC(C)=O)[C@@H]1C` [RIFAMPIN]: in experiment [1], the MIC was found to be 0.2 µg/mL (≈ 0.243 µM).
Still for that read-out and setting: the value for `Cc1ccc(C(C)NC(=O)c2nc(C(C)C)sc2-c2ccc(C#N)cc2)cc1` (configuration not stated) was above 34 µg/mL.
For `Cc1nc(C(=O)N[C@@H](C)c2ccccc2)c(-c2ccc(C#N)cc2)s1`, the MIC in experiment [1] is above 34 µg/mL. In addition, the inhibition at 10 µM in experiment [2] is 73.5%.
Take `N#Cc1ccc(-c2sc(C3CCCCC3)nc2C(=O)N2CCOCC2)cc1`: in experiment [1], the MIC was above 34 µg/mL.
Consider `CCOC(=O)c1nc(C2CCCCC2)sc1-c1cccc2cnccc12`, for which, in experiment [1], the MIC was determined as 4.5 µg/mL (≈ 12.3 µM). Also, the inhibition at 10 µM in experiment [2] was 96%.
For `CC(C)c1nc(C(=O)NCc2ccc3c(c2)OCO3)c(-c2ccc3c(c2)OCO3)s1` the same measures were 10.6 µg/mL (≈ 25 µM) and 82.2%.
In the same order, the values of `CC(C)c1nc(C(=O)N[C@@H](C)c2ccccc2)c(-c2ccc(C#N)cc2)s1` are 18.7 µg/mL (≈ 49.8 µM) and 73.2%.
Consider `CC(C)c1nc(C(=O)NCc2ccc3c(c2)OCO3)c(-c2ccc(C#N)cc2)s1`, for which the MIC in experiment [1] is above 34 µg/mL.
With `CC(C)c1nc(C(=O)N[C@H](C)c2ccccc2)c(-c2ccc3c(c2)OCO3)s1`, the MIC in experiment [1] was found to be 4.9 µg/mL (≈ 12.4 µM). Also, the inhibition at 10 µM in experiment [2] is 90.9%.
On to `N#Cc1ccc(-c2sc(C3CCCCC3)nc2C(=O)NCc2cccnc2)cc1`, for which the MIC in experiment [1] is above 34 µg/mL.
As to `CCOC(=O)c1nc(C(C)C)sc1-c1ccc2c(c1)OCO2`, the MIC in experiment [1] stood at 7.9 µg/mL (≈ 24.7 µM). For the same compound, the inhibition at 10 µM in experiment [2] was found to be 90.1%.
For `CCOC(=O)c1nc(C)sc1-c1ccc(C#N)cc1` the same measures were 14.5 µg/mL (≈ 53.2 µM) and 20.2%.
In the same order, the values of `COc1ccc(CCNC(=O)c2nc(C(C)C)sc2-c2ccc3c(c2)OCO3)cc1OC` are 5.6 µg/mL (≈ 12.3 µM) and 84.9%.
As to `CC(C)c1nc(C(=O)NC(C)c2ccc(Br)cc2)c(-c2ccc(C#N)cc2)s1` (configuration not stated), the MIC in experiment [1] was above 34 µg/mL.
Regarding `CC(C)c1nc(C(=O)NCc2cccnc2)c(-c2ccc3c(c2)OCO3)s1`, in experiment [1], the MIC is 9.5 µg/mL (≈ 24.9 µM). The inhibition at 10 µM in experiment [2] worked out at 87.1%.
